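Growth conditions: 96-well plates. Treatment: test compound, 48 hours, 5 concentrations. Analysis: linear interpolation between bracketing concentrations; unreached endpoints set to highest concentration. Here, GI50 denotes the concentration required for 50% inhibition of growth. The concentration for full growth arrest is given as TGI.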
Assays:
Assay in all cases: NCI tumour cell line growth inhibition, 48 h; in the data active = GI50 below about 0.43 µM; inactive = the rest
A498 renal = tested on: A498 renal
LOX IMVI melanoma = tested on: LOX IMVI melanoma
KM12 colon = tested on: KM12 colon
MCF7 breast = tested on: MCF7 breast
NCI/ADR-RES ovarian = tested on: NCI/ADR-RES ovarian
SNB-75 CNS = tested on: SNB-75 CNS
TK-10 renal = tested on: TK-10 renal
OVCAR-8 ovarian = tested on: OVCAR-8 ovarian
U251 CNS = tested on: U251 CNS
NCI-H226 lung = tested on: NCI-H226 lung
HOP-62 NSCLC = tested on: HOP-62 NSCLC
SK-MEL-2 melanoma = tested on: SK-MEL-2 melanoma
786-0 renal = tested on: 786-0 renal
EKVX NSCLC = tested on: EKVX NSCLC
SK-MEL-5 melanoma = tested on: SK-MEL-5 melanoma
SF-268 CNS = tested on: SF-268 CNS
HCT-15 colon = tested on: HCT-15 colon
SNB-19 CNS = tested on: SNB-19 CNS
OVCAR-5 ovarian = tested on: OVCAR-5 ovarian
SF-539 CNS = tested on: SF-539 CNS
MOLT-4 leukemia = tested on: MOLT-4 leukemia
NCI-H23 lung = tested on: NCI-H23 lung
PC-3 prostate = tested on: PC-3 prostate
HS 578T breast = tested on: HS 578T breast
K-562 leukemia = tested on: K-562 leukemia
SF-295 CNS = tested on: SF-295 CNS
HL-60(TB) leukemia = tested on: HL-60(TB) leukemia
HCC-2998 colon = tested on: HCC-2998 colon
HOP-92 NSCLC = tested on: HOP-92 NSCLC
BT-549 breast = tested on: BT-549 breast
RXF 393 renal = tested on: RXF 393 renal
IGROV1 ovarian = tested on: IGROV1 ovarian
NCI-H522 lung = tested on: NCI-H522 lung
UACC-62 melanoma = tested on: UACC-62 melanoma

COc1ccc(-c2nnc(COc3ccc(Cl)cc3Cl)o2)cc1OC
41.1 µM: TGI (SF-539 CNS)
7.9 µM: TGI (HOP-62 NSCLC)
30.3 µM: TGI (NCI-H226 lung)
70.6 µM: TGI (SF-295 CNS)
4.59 µM: TGI (RXF 393 renal)
3.32 µM: TGI (786-0 renal)
17.6 µM: TGI (U251 CNS)
7.22 µM: TGI (A498 renal)
18.3 µM: TGI (NCI-H522 lung)
96.7 µM: TGI (SF-268 CNS)
3.36 µM: TGI (SNB-75 CNS)
96.2 µM: TGI (HS 578T breast)
4.91 µM: TGI (HOP-92 NSCLC)
> 100 µM: TGI (LOX IMVI melanoma) | TGI (KM12 colon) | TGI (MCF7 breast) | TGI (NCI/ADR-RES ovarian) | TGI (OVCAR-8 ovarian) | TGI (EKVX NSCLC) | TGI (SK-MEL-5 melanoma) | TGI (HCT-15 colon) | TGI (SNB-19 CNS) | TGI (OVCAR-5 ovarian) | TGI (MOLT-4 leukemia) | TGI (NCI-H23 lung) | TGI (PC-3 prostate) | TGI (K-562 leukemia) | TGI (HL-60(TB) leukemia) | TGI (HCC-2998 colon) | TGI (IGROV1 ovarian) | TGI (UACC-62 melanoma)
37.5 µM: TGI (SK-MEL-2 melanoma)
76.5 µM: TGI (BT-549 breast)
6.61 µM: TGI (TK-10 renal)
inactive: GI50 (A498 renal) 2.78 µM | GI50 (LOX IMVI melanoma) 3.16 µM | GI50 (KM12 colon) > 100 µM | GI50 (MCF7 breast) 5.45 µM | GI50 (NCI/ADR-RES ovarian) 3.44 µM | GI50 (SNB-75 CNS) 1.61 µM | GI50 (TK-10 renal) 3.15 µM | GI50 (OVCAR-8 ovarian) 4.02 µM | GI50 (U251 CNS) 4.36 µM | GI50 (NCI-H226 lung) 3.42 µM | GI50 (HOP-62 NSCLC) 2.37 µM | GI50 (SK-MEL-2 melanoma) 7.79 µM | GI50 (786-0 renal) 1.8 µM | GI50 (EKVX NSCLC) 4.39 µM | GI50 (SK-MEL-5 melanoma) 3.27 µM | GI50 (SF-268 CNS) 5.95 µM | GI50 (HCT-15 colon) > 100 µM | GI50 (SNB-19 CNS) 6.69 µM | GI50 (OVCAR-5 ovarian) 3.53 µM | GI50 (SF-539 CNS) 5.52 µM | GI50 (MOLT-4 leukemia) 8.3 µM | GI50 (NCI-H23 lung) 6.18 µM | GI50 (PC-3 prostate) 6.4 µM | GI50 (HS 578T breast) 3.73 µM | GI50 (K-562 leukemia) > 100 µM | GI50 (SF-295 CNS) 13.5 µM | GI50 (HL-60(TB) leukemia) > 100 µM | GI50 (HCC-2998 colon) > 100 µM | GI50 (HOP-92 NSCLC) 2.16 µM | GI50 (BT-549 breast) 16.9 µM | GI50 (RXF 393 renal) 2.14 µM | GI50 (IGROV1 ovarian) 4.22 µM | GI50 (NCI-H522 lung) 3.28 µM | GI50 (UACC-62 melanoma) 3.35 µM

From PubChem BioAssay (NCI)
